# According to publication PMC10938262 (Science translational medicine, 2023):
# Target: T1, human estrogen receptor α (ERα) (Homo sapiens, UniProt P03372)
# T1 sequence (P03372 302-552 limits assumed): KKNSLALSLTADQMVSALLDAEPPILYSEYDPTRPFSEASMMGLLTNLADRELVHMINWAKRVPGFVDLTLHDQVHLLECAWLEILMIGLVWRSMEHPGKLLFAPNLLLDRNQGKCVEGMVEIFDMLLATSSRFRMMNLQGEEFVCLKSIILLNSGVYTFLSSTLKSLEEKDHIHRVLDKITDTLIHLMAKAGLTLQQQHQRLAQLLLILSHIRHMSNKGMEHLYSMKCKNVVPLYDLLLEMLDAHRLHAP
# Assay type: binding
smiles,measurement,value
"C[C@]12CC[C@@H]3c4ccc(O)cc4CC[C@H]3[C@@H]1C[C@@H](F)[C@@H]2O [FES, 16α-fluoroestradiol]",Ki,0.3 ± 0.1 nM
